Results: publication PMC4544630, “Contribution of C-glucosidic ellagitannins to Lythrum salicaria L. influence on pro-inflammatory functions of human neutrophils” (Journal of Natural Medicines, 2014)

Key:
elastase = experiment: Elastase release from cytochalasin A/f-MLP-stimulated neutrophils (SAAVNA substrate); assay type: cell-based, human; conditions: for Elastase release Mean(%): % of stimulated control
Description: (§1) Peripheral venous blood was taken from healthy human donors (20–35 years old) in the Warsaw Blood Donation Centre. […] The study conformed to the principles of the Declaration of Helsinki. Neutrophils were isolated using a standard method of dextran sedimentation prior to hypotonic lysis of erythrocytes and to centrifugation in a Ficoll Hypaque gradient. The purity of neutrophil preparations was >97 %, and viability measured by trypan blue exclusion was >98 %. Neutrophils were then resuspended in appropriate medium to perform the selected assay.
Neutrophil elastase release was determined using SAAVNA as a substrate, and […] was measured spectrophotometrically. 100 μL of cell suspension (5 × 10^5/mL) in HBSS was preincubated with 50 μL of compound or extract solution (final concentrations of 1, 5 and 20 μM or μg/mL) for 15 min at 37 °C and then stimulated with 50 μL of cytochalasin A (5 μg/mL) and f-MLP (0.1 μg/mL) for 15 min. The neutrophils were centrifuged (2000 rpm; 10 min; 4 °C). After the addition of 50 μL of SAAVNA solution (1.6 mg/mL) to 100 μL of supernatant, the extent of […] was measured spectrophotometrically for 1 h at intervals of 20 min, at 412 nm using a microplate reader (BioTek). According to Kanashiro et al., quercetin was used as a positive control.

MMP-9 = MMP-9 production by LPS-stimulated neutrophils (ELISA); assay type: cell-based, human; conditions: LPS 100 ng/mL, 24 h, % of stimulated control
Description: as §1
(§2) Neutrophils (2 × 10^5/mL) were cultured in 24-well plates in RPMI 1640 medium with 10 % FBS, 10 mM HEPES, and 2 mM L-glutamine in the absence or presence of LPS (100 ng/mL) for 24 h at 37 °C with 5 % CO2 in the absence or presence of extract at concentrations of 1, 5 and 20 μg/mL, and compounds at concentrations of 1, 5 and 20 μM were added to 1 mL of cell suspension 1 h before the stimuli. After 24 h, the neutrophils were harvested and centrifuged (2000 RPM; 10 min; 4 °C). The amount of IL-8 or MMP-9 released into cell supernatants was measured by enzyme-linked immunosorbent assay (ELISA) following the manufacturer’s instructions (R&D Systems, Minneapolis, MN, USA). PBS was used as a non-stimulated control. Curcumin was used as a positive control, according to Aggarwal and Harikumar and Antoine et al..

[1] = test system: ethanol-induced gastric lesions; parameters: method as in PMID 12590500; conditions: mouse; orally 50 mg/kg b.w.; cited from earlier work
ROS [2] = experiment: ROS release from PMA-stimulated neutrophils, lucigenin chemiluminescence; assay type: cell-based, human; conditions: PMA + lucygenin, % of stimulated control
Description: as §1
(§3) Generation of oxidants by f-MLP or PMA-stimulated neutrophils was measured using luminol- or lucigenin-dependent chemiluminescence tests. 70 μL of cell suspension (2 × 10^5/mL) in HBSS was incubated with 50 μL of compound or extract solution (final concentrations of 1, 5 and 20 μM or μg/mL) together with 50 μL of luminol (100 μM) or lucigenin (200 μM) solution. ROS production was initiated by the addition of 30 μL of f-MLP (0.1 μg/mL) or PMA (1 μg/mL). Changes in chemiluminescence at 37 °C were measured immediately for 45 min at intervals of 2 min in a microplate reader (Biotek). Ascorbic acid was used as a positive control.

[3] = target: T1, bovine testis hyaluronidase (Bos taurus, UniProt Q2YDK3); experiment: Hyaluronidase activity, USP turbidimetric method modified; assay type: biochemical; conditions: for Hyaluronidase activity Mean(%): % of 100% active enzyme control
T1 construct: purchased Sigma–Aldrich GmbH (Steinheim, Germany); host or cells: bovine testis
T1 sequence (Q2YDK3 36-553): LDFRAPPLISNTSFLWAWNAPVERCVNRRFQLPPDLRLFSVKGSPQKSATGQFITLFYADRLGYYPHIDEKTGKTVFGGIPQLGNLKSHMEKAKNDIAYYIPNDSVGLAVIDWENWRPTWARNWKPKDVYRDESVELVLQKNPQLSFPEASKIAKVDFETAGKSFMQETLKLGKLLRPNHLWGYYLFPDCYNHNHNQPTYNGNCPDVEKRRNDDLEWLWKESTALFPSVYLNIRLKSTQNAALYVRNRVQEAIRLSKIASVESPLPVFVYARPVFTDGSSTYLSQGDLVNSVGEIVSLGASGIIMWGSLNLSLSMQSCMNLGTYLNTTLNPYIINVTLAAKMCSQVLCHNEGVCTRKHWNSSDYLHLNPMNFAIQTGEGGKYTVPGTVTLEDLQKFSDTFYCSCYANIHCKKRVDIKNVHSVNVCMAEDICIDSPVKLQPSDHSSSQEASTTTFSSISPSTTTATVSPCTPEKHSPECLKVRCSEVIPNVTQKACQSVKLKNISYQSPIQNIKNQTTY
Description: The […] flowering herb was collected from its natural habitat in Umer in the Świętokrzyskie region (Poland) in July 2011. Its identity was confirmed anatomically and morphologically based on its pharmacopoeial monograph in the Department of Pharmacognosy and Molecular Basis of Phytotherapy, Medical University of Warsaw, where the voucher specimen UMER2011 is deposited. […] […]), castalagin ([…] (SB) and […]. 1, 2) from […] performed according to Piwowarski and Kiss. […] Isolated ellagitannins were of >95 % purity (determined by the HPLC-DAD-CAD method). […] Gallic acid (>96 % purity) was purchased from ChromaDex (Santa Ana, USA). Propidium iodide was purchased from BD Biosciences (San Diego, CA, USA). All substances used were of >95 % purity. Phosphate-buffered saline (PBS) was purchased from Gibco (Carlsbad, CA, USA). The influence of extract and ellagitannins on hyaluronidase activity was measured using the USP turbidimetric method modified by Piwowarski et al. […] Heparin was used as a positive control.

ROS [4] = experiment: ROS release from f-MLP-stimulated neutrophils, luminol chemiluminescence; assay type: cell-based, human; conditions: % of stimulated control
Description: as §1, §3

MPO = MPO release from cytochalasin A/f-MLP-stimulated neutrophils (TMB substrate); assay type: cell-based, human; conditions: for MPO release Mean(%): cytochalasin A/f-MLP, % of stimulated control
Description: Peripheral venous blood was taken from healthy human donors (20-35 years old) in the Warsaw Blood Donation Centre. […] The study conformed to the principles of the Declaration of Helsinki. Neutrophils were isolated using a standard method of dextran sedimentation prior to hypotonic lysis of erythrocytes and to centrifugation in a Ficoll Hypaque gradient. The purity of neutrophil preparations was >97 %, and viability measured by trypan blue exclusion was >98 %. Neutrophils were then resuspended in appropriate medium to perform the selected assay. Neutrophil MPO release was determined using TMB as a substrate. […] After centrifugation (2000 rpm; 10 min; 4 °C), 100 μL of supernatant was incubated with 50 μL of the TMB liquid substrate system. The reaction was terminated after 20 min by the addition of 2 M hydrochloric acid. The absorbance was measured at […] using a microplate reader (BioTek). Gallic acid was used as a positive control, according to Kroes et al..

IL-8 = IL-8 production by LPS-stimulated neutrophils (ELISA); assay type: cell-based, human; conditions: LPS 100 ng/mL, 24 h, % of stimulated control
Description: as §1, §2

IC50 [3] [nM] | Hyaluronidase activity Mean(%) ([3]; 1 μM) | Hyaluronidase activity Mean(%) ([3]; 2 μM) | Hyaluronidase activity Mean(%) ([3]; 5 μM) | Hyaluronidase activity Mean(%) ([3]; 20 μM) | SMILES | Elastase release Mean(%) (elastase; 1 μM) | Elastase release Mean(%) (elastase; 5 μM) | Elastase release Mean(%) (elastase; 20 μM) | MMP-9 production Mean (%) (MMP-9; 1 μM) | MMP-9 production Mean (%) (MMP-9; 5 μM) | MMP-9 production Mean (%) (MMP-9; 20 μM) | ROS release Mean(%) (ROS [2]; 1 μM) | ROS release Mean(%) (ROS [2]; 5 μM) | ROS release Mean(%) (ROS [2]; 20 μM) | ROS release Mean(%) (ROS [4]; 1 μM) | ROS release Mean(%) (ROS [4]; 5 μM) | ROS release Mean(%) (ROS [4]; 20 μM) | MPO release Mean(%) (MPO; 1 μM) | MPO release Mean(%) (MPO; 5 μM) | MPO release Mean(%) (MPO; 20 μM) | further results
3100 ± 200 | 87,07% | 73,08% | 19,92% | 3,13% | O=C1OC[C@H]2OC(=O)c3cc(O)c(O)c(O)c3-c3c(O)c(O)c(O)c4c3C(=O)O[C@H]([C@H]3OC(=O)c5c-4c(O)c(O)c(O)c5[C@H]3O)[C@@H]2OC(=O)c2cc(O)c(O)c(O)c2-c2c1cc(O)c(O)c2O [C, castalagin] | 96,55% | 102,40% | 105,22% | 92,70% | 88,18% | 96,42% | 79,28% | 60,48% | 37,00% | 62,41% | 40,10% | 29,55% | 75,53% | 56,44% | 29,85% | activity on elastase release (elastase; tested concentrations (1, 5, 20 μM)): completely inactive; reduction of ethanol-induced gastric lesions [1]: very potent in the reduction of ethanol-induced gastric lesions; activity on MPO release (MPO; all tested concentrations (1, 5, 20 μM)): expressed inhibitory activity at all tested concentrations; IL-8 production Mean (%) (IL-8; 1 μM): 92,43%; IL-8 production Mean (%) (IL-8; 5 μM): 75,24%; IL-8 production Mean (%) (IL-8; 20 μM): 70,24%
2500 ± 200 | 81,82% | 57,68% | 8,00% | 0,50% | O=C(OC1COC(=O)c2cc(O)c(O)c(O)c2-c2c(cc(O)c(O)c2O)C(=O)OC1C1OC(=O)c2cc(O)c(O)c(O)c2-c2c(O)c(O)c(O)c3c2C(=O)OC1C3O)c1cc(O)c(O)c(O)c1Oc1cc2c(c(O)c1O)-c1c(cc(O)c(O)c1O)C(=O)OCC1OC(=O)c3cc(O)c(O)c(O)c3-c3c(O)c(O)c(O)c4c3C(=O)OC(C1OC2=O)C1OC(=O)c2c-4c(O)c(O)c(O)c2C1O (stereo not drawn) [SC, salicarinin C] | 85,10% | 80,91% | 50,60% | 97,74% | 92,17% | 86,61% | 66,62% | 34,56% | 7,37% | 63,16% | 34,71% | 18,92% | 66,67% | 52,85% | 5,95% | IL-8 production Mean (%) (IL-8; 1 μM): 77,70%; IL-8 production Mean (%) (IL-8; 5 μM): 78,29%; IL-8 production Mean (%) (IL-8; 20 μM): 56,68%
1600 ± 200 | 70,96% | 34,62% | -0,07% | 0,50% | O=C(OC1COC(=O)c2cc(O)c(O)c(O)c2-c2c(cc(O)c(O)c2O)C(=O)OC1C1OC(=O)c2cc(O)c(O)c(O)c2-c2c(O)c(O)c(O)c3c2C(=O)OC1C3O)c1cc(O)c(O)c(O)c1Oc1cc2c(c(O)c1O)-c1c(cc(O)c(O)c1O)C(=O)OCC1OC(=O)c3cc(O)c(O)c(O)c3-c3c(O)c(O)c(O)c4c3C(=O)OC(C1OC2=O)C1OC(=O)c2c-4c(O)c(O)c(O)c2C1O (stereo not drawn) [SB, salicarinin B] | 82,54% | 65,03% | 38,16% | 99,56% | 95,83% | 78,81% | 64,77% | 36,09% | 13,06% | 61,64% | 28,73% | 16,39% | 67,99% | 49,60% | 2,93% | IL-8 production Mean (%) (IL-8; 1 μM): 107,98%; IL-8 production Mean (%) (IL-8; 5 μM): 78,12%; IL-8 production Mean (%) (IL-8; 20 μM): 59,17%
